Results reported in a melting point compilation (Tetko et al.; mined from patent text by program, amines drawn as free bases though some values may be those of a salt).

melting point [°C] | Compound
256 to 257 | COC(=O)c1ccc(N)c(C(=O)C(=O)OC(=O)C(=O)c2cc(C(=O)OC)ccc2N)c1
224 to 227 | O=C(O)c1cn(C2CC2)c2c(F)c(N3CC(N4CCCC4)C3)c(F)cc2c1=O
209 to 210 | CC(=O)NN[C@@H]1c2cc(C#N)ccc2OC(C)(C)[C@H]1O (relative stereo)
130 to 135 | N#Cc1cccc(Cc2c(-c3ccc(OC(F)F)c(OC4CC4)c3)[nH]c3cn[nH]c(=O)c23)c1
215 | COc1ccc(S(=O)(=O)C2(C(=O)O)CCN(Cc3ccc(Br)cc3)CC2)cc1
95 to 98 | O=C=Nc1c(F)cc(Cl)c2nc(Cl)sc12
236 to 238 | Cc1cccc(-n2c(-c3sc(Nc4ccc(Cl)cc4)nc3C)nc3ccccc3c2=O)c1
267 to 269 | O=c1[nH]c2ccc(Cl)cc2c(-c2ccccc2)[n+]1[O-]
124 to 128 | Cc1cc(C)c2cccc(OCc3c(Cl)ccc(S(=O)(=O)N4CCC[C@H]4C(=O)NCCCNC(=O)COc4ccc(C=NN)cc4)c3Cl)c2n1
210 to 214 | C#CCNC(=O)c1cccc(F)c1Nc1nc(Nc2ccc3c(c2)N(C(C)=O)CCCC3)ncc1Cl
160 to 161 | CNC(=O)C1OC1C(=O)c1ccc(Cl)cc1 (stereo not drawn)
112 to 113 | CC(=NN(C)c1ccc(C(F)(F)F)cc1)C(=O)NCc1ccc(Cl)cc1
168 to 169 | CCN(CC)CCOc1ccc2c(C(=O)NC(=N)N)cccc2c1
215 to 217 | CCC1(C)Cc2cc(O)c(Cl)c(Cl)c2C1=O (stereo not drawn)
256 to 258 | Cc1nnc2ccc(-c3cccc(NC(=O)C(C)(C)C)c3)nn12
113 to 155 | COc1cc2c(cc1O)CCN(Cc1cccc(C#N)c1)C2
258 to 261 | O=C(Nc1ccc(CN2C(=O)CNC2=O)cc1)c1cc(=O)c2ccccc2o1
194 to 198 | O=C(O)c1ccsc1-c1sccc1C(=O)O
91 to 93 | CCOC(=O)COc1ccc2c(c1)C(=O)C(Br)CC2 (stereo not drawn)
150 | O=c1[nH]c(=O)n(COc2ccccc2)cc1F
93 to 98 | Brc1cccc2c1SSSSS2
260 | Oc1cnc2cc(C(F)(F)F)ccc2n1
242 to 244 | CCCCCc1ccc(-c2ccc(-c3nc(N)nc(N)n3)cc2)cc1

melting point [°C] | Compound
77 to 78 | C#CCn1c(C(F)(F)F)c(C(C)O)sc1=O (racemic)
204 | O=C(CN1C(=O)c2ccccc2C1=O)Nc1ccccc1-c1ccccc1
290 to 295 | CON=C(c1ccc(F)cc1)c1ccc2[nH]c(NC(=O)OC)nc2c1
56 to 58 | CCC(C)(CC)c1ccc(N)nn1
216 to 219 | O=C(O)c1cc(=O)c2ccc(COc3ccc(OCc4ccc5ccccc5n4)cc3)cc2o1
116 to 120 | COc1ccccc1NCCN1CCC(C(=O)c2ccc(F)cc2)CC1
190 to 194 | CCCCc1nc2c(N)nc3ccc(OCc4ccccc4)cc3c2n1CCCCNC(=O)Nc1ccccc1
108 to 109 | Cc1ccc(S(=O)(=O)C(=[N+]=[N-])S(C)(=O)=O)cc1
245 to 246 | CC(=O)O[C@H]1[C@H](N2CCCNC2=NC#N)c2cc(C#N)ccc2OC1(C)C (relative stereo)
198 to 199 | CC(C)n1nc(-c2sc(NC(=O)OC(C)(C)C)nc2-c2ccccc2)ccc1=O
199 to 200 | COCCc1nc2c(N)nc3ccccc3c2n1CCCCNC(=O)c1cc2ccccc2cn1
> 250 | O=C(Nc1ccncc1)c1ccc(C2=NCCN2)cc1
74 | [N-]=[N+]=NCn1cc(Cl)c(-c2cc(Cl)cc(Cl)c2)n1
180 | CCOP(=O)(Cc1ccc(C(=S)Nc2nc3c(s2)Cc2c(Cl)cccc2-3)cc1)OCC
240 | CO/C(=C\C=C\c1cc2ccccc2s1)C(=O)NC1CC(C)(C)N(C)C(C)(C)C1
165 to 167 | CN1CCc2cc(C#CCO)cc3c(=O)c(C(=O)NCc4ccc(Cl)cc4)cn1c23
141 to 142 | CCOC(=O)C1=C(C)NC(C)=C(C(=O)OCC)C1c1ccccc1/C=C(\C)c1ccccc1
65 | CCCCC1CCC(c2ccc(C(=O)CC(=O)C(F)(F)F)cc2)CC1 (stereo not drawn)
244 | CCc1ccc2c(c1)C=Cc1cc(C)ccc1C2c1cn(-c2ccnc(N3CC(C(=O)O)C3)n2)c(=O)[nH]c1=O (stereo not drawn)
160 to 162 | CCC1(CC)CC(c2ccc(OC)c(OC)c2)=NN(C2CCN(C(=O)c3ccccc3OC)CC2)C1=O
64 to 66 | CC(C)(C)OC(=O)C[C@H](NC(=O)CCCC(=O)Nc1ccc(C#N)cc1)C(=O)N[C@@H](Cc1ccccc1)C(=O)OC(C)(C)C
200 to 202 | O=C1Cc2c(Oc3ccccc3)ccc(Cl)c2N1
48 | C=CC[C@@H]1C(=O)OC[C@@H]1O[Si](C)(C)C(C)(C)C

melting point [°C] | Compound
118 to 122 | O=C1C2C3C=CC(CC3)C2S(=O)(=O)N1CCCCBr (stereo not drawn)
255 to 258 | Nc1ccc(S(=O)(=O)c2cc(-c3ccccc3)nc(N3CCCC3)c2)cc1
249 to 251 | COc1ccc2[nH]c(=O)[nH]c2c1
95 to 96 | Nc1c(Cl)cc(C(O)CNCCCCCCOCCCCc2ncccc2O)cc1Cl (stereo not drawn)
226 to 227 | COc1ccc2c(c1)c(-c1cc3cccnc3[nH]1)cn2C
226 to 229 | CC1=C(c2ccc(O)cc2)C(=O)c2cc(O)c(O)cc21
178 to 181 | O=c1c2c([nH]n1-c1ccccc1)CCCC2
101 to 107 | CC(=O)Nc1cccc(C(=O)N2CCN(CCc3ccc(Cl)cc3)CC2)c1
128 to 130 | C[Si](C)(C)C#Cc1ccc(C=CC2=CC(c3ccc(C#C[Si](C)(C)C)cc3)N(c3ccccc3)N2)cc1 (stereo not drawn)
116 to 119 | CCOc1nc(-c2ccc(OC)c(OC)c2)cc(=Nc2c(C)cc(C)cc2C)n1C
148 to 150 | CCOC(OCC)N1C(=O)C(c2ncnc3cc(OCCOC)c(OC)cc23)c2ccccc21 (stereo not drawn)
77 to 78 | C[C@@H](Cn1ncc2ccc3c(c21)C[C@@H](OCC(=O)OC(C)(C)C)CO3)N=[N+]=[N-]
242 to 243 | CCOC(=O)Cn1c(=O)[nH]c(=O)c2ccc(Cl)cc21
71 to 73 | Clc1ccc(C2=CCCC2)cc1
291 to 294 | O=C(O)c1cn(C2CC2)c2cc(N3CCC3)c(F)cc2c1=O
182 to 183 | CCC(COC)Nc1nc(C)nc(N2CCc3cc(OC)cc(Cl)c32)c1C#N (stereo not drawn)
186 to 187 | COc1cc(N)c(Cl)cc1-c1nn(C2CCN(CC3CCCCC3)CC2)c(=O)o1
109 to 110 | COc1cc(CC(=O)O)cc(OCCCc2cn(-c3ccc(C(F)(F)F)cn3)nc2C(C)C)c1
100 to 101 | CCOc1cc(C(O)C(C)C)cc2c1OC(C)(C)C2 (stereo not drawn)
219 to 220 | CNc1ncnc2c1ncn2Cc1c(Cl)cccc1Cl
214 to 215 | O=C(Nc1cccnc1)NC(NC(=O)c1ccccc1)C(Cl)(Cl)Cl (stereo not drawn)
119 | O=C(c1ccccc1Cl)c1ccccc1Nc1ncccc1[N+](=O)[O-]
192 to 194 | CC(=O)Nc1ccc(F)cc1OCCOc1ccc([N+](=O)[O-])cc1F

melting point [°C] | Compound
94 to 96 | COC(=O)C(C(C)=O)C(c1cccc([N+](=O)[O-])c1)C(C(C)=O)C(=O)OC (stereo not drawn)
142 to 143 | O=C/C=C/c1csc(Nc2ccccc2)n1
60 to 70 | CC(C)(C)OC(=O)c1ccc(OCCNC(=O)C2Cc3ccccc3N2S(=O)(=O)c2ccc(-c3ccc(F)cc3OC(F)F)cc2)cc1 (stereo not drawn)
30 to 32 | CN(C)c1nc(-c2cccc3ccccc23)co1
198 to 201 | CC(C)(C)SCC1Cn2cc(C(=O)NCc3ccc(Cl)cc3)c(=O)c3cc(CN4CCOCC4)cc(c32)O1 (stereo not drawn)
159 | CC(C)(C)NS(=O)(=O)c1ccccc1-c1ccc(NC(=O)C(=O)O)cc1
214 to 216 | NC(=S)c1c(Cl)c(-c2cccnc2)n2c1CN(C(=O)Nc1ccc(F)cc1)CC2
145 to 158 | CCOc1cc(C)ccc1C1CCN(CCCCNC(=O)c2ccc3oc(-c4ccc(Cl)cc4)cc3c2)CC1
64 to 65 | CC(=O)OC1C=C(C)C(=O)CC(C)(C)C1OC(=O)C=Cc1ccccc1 (stereo not drawn)
135 | Cc1c(CO)c2ccc(OCCCN3CCN(Cc4ccc(Cl)cc4)CC3)cc2oc1=O
201 to 202 | CCN1c2ccccc2NC(=O)c2cscc21
190 to 193 | O=c1[nH]ncc2cc(CCc3ccccc3)ccc12
258 | CC1(C)CCC(C)(C)c2cc(-c3cc(-c4ccc(C(=O)O)cc4)ccc3OCC(O)CO)ccc21 (stereo not drawn)
108 to 111 | CC(CCN1CCCCC1)CC(=O)NNC(=O)N1Cc2ccccc2Oc2ccc(Cl)cc21 (stereo not drawn)
70 to 71 | COc1ccc(NC(C)CC(=O)NC(=O)OC(C)(C)C)cc1 (stereo not drawn)
46 to 48 | Cc1cc(-c2cccc(C(F)(F)F)c2)c2nc(OCC(F)(F)F)cnc2c1
> 300 | CC(=O)OCc1nc2nc(O)cnc2c(=O)[nH]1
60.5 to 64.5 | CC(C)Oc1cc(N2C(=O)C3CCCCN3C2=O)c(F)cc1Cl (stereo not drawn)
115 | CCCCCCOc1ccc(-c2ncc(-c3ccc(OCc4ccccc4)c(F)c3F)cn2)cn1
178 to 179 | c1csc(-c2n[nH]c3c2Cc2cc(CN4CCOCC4)ccc2-3)c1
277 to 279 | O=C(O)c1ccc(-c2nc(-c3cc(C(F)(F)F)cc(C(F)(F)F)c3)co2)cc1

Compound | melting point [°C]
C[C@](O)(COc1ccc(C#N)cc1)C(=O)Nc1ccc(C#N)c(C(F)(F)F)c1 | 92 to 94
CNC(=S)NNCC1CC2c3cccc4[nH]cc(c34)CC2N(C)C1 (stereo not drawn) | 220 to 221
CNS(=O)(=O)Cc1ccc2[nH]cc(CCN)c2c1 | 179 to 181
COc1ccc(C(=O)NC2N=C(c3ccccc3F)c3ccccc3NC2=O)cc1 (racemic) | 231 to 233
O=C(Cl)c1ccc(CBr)cc1 | 56 to 58
O=C(Nc1nccs1)c1cn(CC2CC2)c2cc(Cl)ccc12 | 185 to 187
CC(C)(CF)c1cc(Cl)nnc1Cl | 36 to 38
Cc1cc(O)c2c(c1)C(C)(C)CCC2(C)C | 133 to 134
